Literature values, collected in US5330766A, “Sustained release pharmaceutical composition” (priority 1989, dated 1994).
Structures can show the parent of a compound that is named as a salt. Where two headings read alike, the source gives them in different places.

Key:
[1] = not given; remark: listed apart in the source

Row | Compound | pKA (first or only value given) | SOLUBILITY (AQUEOUS), in words [1] | other results
1 | NCCCCCC(=O)O [Aminocaproic acid] | 4.43 | – | pKA (second value): 10.73
2 | CCCC(CCC)C(=O)O[C@H]1C[C@H]2CC[C@@H](C1)[N+]2(C)C [Anisotropine methylbromide] | – | soluble | –
3 | CN1CCC(=C2c3ccccc3CCc3cccnc32)CC1 [Azatadine maleate] | 9.3 | very soluble | –
4 | C[C@@H](Cc1ccccc1)N(C)Cc1ccccc1 [Benzphetamine hydrochloride] | 6.6 | – | –
5 | CCC(C)C1(CC)C(=O)NC(=O)NC1=O (stereo not shown) [Butabarbital sodium] | 7.9 | freely soluble | –
6 | CN(C)CCOC(c1ccc(Cl)cc1)c1ccccn1 (stereo not shown) [Carbinoxamine maleate] | 8.1 | – | –
7 | O=C(O)c1ccccc1O [Choline salicylate] | – | very soluble | –
8 | C[N+]12CCC(CC1)C(OC(=O)C(O)(c1ccccc1)c1ccccc1)C2 (stereo not shown) [Clidinium bromide] | – | soluble | –
9 | CCCCCCCCCCCCCCCC(=O)OC1C(SC)OC(C(NC(=O)C2CC(CCC)CN2C)C(C)Cl)C(O)C1O (stereo not shown) [Clindamycin Palmitate HCl] | – | freely soluble | –
10 | Cc1onc(-c2ccccc2Cl)c1C(=O)N[C@@H]1C(=O)N2[C@@H]1SC(C)(C)[C@@H]2C(=O)O [Cloxacillin sodium] | 2.7 | – | –
11 | COc1cc2c(c(OC)c1OC)-c1ccc(OC)c(=O)cc1[C@@H](NC(C)=O)CC2 [Colchicine] | 1.7 | – | pKA (second value): 12.4
12 | C[C@H](CN1CCOCC1)C(C(=O)N1CCCC1)(c1ccccc1)c1ccccc1 [Dextromoramide tartrate] | 7.1 | – | –
13 | CC(C)N(CCC(C(N)=O)(c1ccccc1)c1ccccn1)C(C)C (stereo not shown) [Disopyramide phosphate] | 8.4 | – | –
14 | CCC1(C)CC(=O)NC1=O (stereo not shown) [Ethosuximide] | 9.0 | – | –
15 | CCNC(C)Cc1cccc(C(F)(F)F)c1 (stereo not shown) [Fenfluramine hydrochloride] | 9.1 | – | –
16 | COc1ccc2c3c1O[C@H]1C(=O)CC[C@H]4[C@@H](C2)N(C)CC[C@]314.O=C(O)C(O)C(O)C(=O)O [Hydrocodone bitartrate] | 8.3 | – | –
17 | OCCOCCN1CCN(C(c2ccccc2)c2ccc(Cl)cc2)CC1 (stereo not shown) [Hydroxyzine hydrochloride] | 2.6 | – | pKA (second value): 7.0
18 | NNC(=O)c1ccncc1 [Isoniazid] | – | – | pKA: 10.8; pKA (second value): 3.5
19 | Nc1nc2c(c(=O)[nH]1)N(C=O)C(CNc1ccc(C(=O)N[C@@H](CCC(=O)O)C(=O)O)cc1)CN2 (stereo partly shown) [Leucovorin calcium] | 3.1 | very soluble | pKA: 10.4; pKA (second value): 4.8
20 | CN1CCC(CN2c3ccccc3Sc3ccccc32)C1 (stereo not shown) [Methdilazine HCl] | 7.5 | – | –
21 | COC(=O)C(c1ccccc1)C1CCCCN1 (stereo not shown) [Methylphenidate hydrochloride] | 8.8 | freely soluble | –

Row | Compound | pKA (first or only value given) | SOLUBILITY (AQUEOUS), in words [1] | other results
22 | CCC1(CC)C(=O)NCC(C)C1=O (stereo not shown) [Methyprylon] | 12 | – | –
23 | CN1CCCC1c1cccnc1 (stereo not shown) [Nicotine] | – | soluble | –
24 | CO[C@@H]1[C@@H](OC(N)=O)[C@@H](O)[C@H](Oc2ccc3c(O)c(NC(=O)c4ccc(O)c(CC=C(C)C)c4)c(=O)oc3c2C)OC1(C)C [Novobiocin Sodium] | – | – | pKA (second value): 9.1
25 | CCN(CC)CC#CCOC(=O)C(O)(c1ccccc1)C1CCCCC1 (stereo not shown) [Oxybutynin hydrochloride] | 6.96 | – | –
26 | CN(C)C1C(=O)C(C(N)=O)=C(O)C2(O)C(=O)C3=C(O)c4c(O)cccc4C(C)(O)C3C(O)C12 (stereo not shown) [Oxytetracycline HCl] | 3.3 | – | pKA: 9.1; pKA (second value): 7.3
27 | COc1ccc(Cc2nccc3cc(OC)c(OC)cc23)cc1OC [Papaverine hydrochloride] | 6.4 | – | –
28 | CC(C)(S)[C@@H](N)C(=O)O [Penicillamine HCl] | – | – | pKA (first or only value given, HCl): 8.0; pKA (second value): 10.8
29 | CC(C)(S)[C@@H](N)C(=O)O [Penicillamine] | 1.8 | – | –
30 | CCOC(=O)C1(c2ccccc2)CCN(C)CC1 [Pethidine hydrochloride] | – | very soluble | –
31 | C[C@H]1[C@H](c2ccccc2)OCCN1C [Phendimetrazine tartrate] | 7.6 | freely soluble | –
32 | CC1NCCOC1c1ccccc1 (stereo not shown) [Phenmetrazine hydrochloride] | 8.4 | – | –
33 | CC(COc1ccccc1)N(CCCl)Cc1ccccc1 (stereo not shown) [Phenoxybenzamine hydrochloride] | 4.4 | – | –
34 | CC(N)C(O)c1ccccc1 (stereo not shown) [Phenylpropanolamine hydrochloride] | 9 | – | –
35 | O=C1NC(=O)C(c2ccccc2)(c2ccccc2)N1 [Phenytoin sodium] | – | soluble | –
36 | C[n+]1ccccc1/C=N/O [Pralidoxime chloride] | 8 | – | –
37 | CC(C)[N+](C)(CCOC(=O)C1c2ccccc2Oc2ccccc21)C(C)C [Propantheline bromide] | 9.0 | very soluble | –
38 | C=CCC1(C(C)CCC)C(=O)NC(=O)NC1=O (stereo not shown) [Secobarbital sodium] | 7.5 | – | –
39 | CC(C)(C)NC[C@H](O)COc1nsnc1N1CCOCC1 [Timolol maleate] | 9 | freely soluble | –
40 | COc1cc(C(=O)NCc2ccc(OCCN(C)C)cc2)cc(OC)c1OC [Trimethobenzamide hydrochloride] | 8.3 | – | –
41 | CN(C)CCN(Cc1ccccc1)c1ccccn1 [Tripelennamine citrate] | 3.9 | – | pKA (second value): 9.0
